This is an account of results in PMC5837957 (European journal of medicinal chemistry, 2018).

Where “and” joins values, the source holds several entries; their conditions need not be identical. Equal entries are not always repeated. Entries after “also recorded” stand apart in the source; their conditions may differ. Where two headings read alike, the source gives them in different places. Positions of bridges follow the written chain, without caps; N, C: chain ends. Residues, ends and D or L forms follow the SMILES beside them. *: point of attachment. Stearoyl = CCCCCCCCCCCCCCCCCC(=O)*; Octanoyl = CCCCCCCC(=O)*

Experiment [1] concerns H3K4me2 at the promoter of the FEZ1 gene in NCI-H526 cells. In words: ChIP-qPCR of H3K4me2 at FEZ1 promoter. As to conditions: 100 µM, 48 h. It is filed as cell-based. A general note: In qPCR the cycle at which signal appears reflects the starting amount.
For experiment [2], the system named is H3K4me2 at the promoter of the IGFBP2 gene in NCI-H526 cells. Put plainly: ChIP-qPCR of H3K4me2 at IGFBP2 promoter. In kind it is cell-based. Conditions: 100 µM, 48 h.
The subject of the next experiment is recombinant LSD1. Conditions: cited from earlier work.
For a further experiment, the target named is LSD1 bound to CoREST. As to conditions: read-out: Ki, LSD1 bound to CoREST; cited from earlier work.
The test system of experiment [3] is MCF-7 breast cancer line. As to conditions: 2 h.
The test system of experiment [4] is Calu-6 lung cancer cell line. As to conditions: for IC50: 2 h; for % cell death Calu 6: 72-hour treatment, inactive indicates no growth inhibition at a concentration of 100 µM.
The next experiment concerns the target recombinant LSD1/CoREST (Homo sapiens, UniProt O60341). Put plainly: In vitro LSD1 demethylation assay. Conditions: Table 3, truncated peptides; inhibitor 500 nM; 0.5 µM. In kind it is biochemical.
The subject of experiment [5] is K562 myelogenous leukemia cell line. Conditions: for % cell death K562: 72-hour treatment.
In experiment [6] the test system is Calu-6 lung cancer cell line. Put plainly: cells. Conditions: Homo sapiens, Calu-6, 72 h, 72-hour treatment.
Experiment [7] deals with MCF-7 breast cancer line. Put plainly: cells. As to conditions: Homo sapiens, MCF7, 72 h, 72-hour treatment.
Experiment [8] relates to global H3K4me2 in K562 leukemia cells. In words: Western blot of global H3K4me2, K562. (In general: In western blotting, separated proteins are transferred to a membrane and probed.)
For experiment [9], the system named is global H3K4me2 in Calu6 lung adenocarcinoma cells. In words: Western blot of global H3K4me2, Calu6. As to conditions: 10 µM, 48-hour exposure.
For experiment [10], the system named is Calu-6 lung cancer cell line. As to conditions: read-out: IC50 (Calu-6); cited from earlier work.
For experiment [11], the system named is MCF-7 breast cancer line. Conditions: read-out: IC50 (MCF7); cited from earlier work.

Take `Cl.Cl.c1ccc([C@@H]2C[C@H]2NC2CCNCC2)cc1` [GSK-LSD1, reference compound]: the “H3K4me2 levels at the FEZ1 promoter” value in experiment [1] is “increases H3K4me2 marks; also recorded: somewhat less effective”. In experiment [2], the “H3K4me2 levels at the IGFBP2 promoter” value is “increases H3K4me2 marks; also recorded: somewhat less effective”.

The term IC50 denotes the concentration at which inhibition is half-maximal. In general, Ki refers to the equilibrium dissociation constant of an inhibitor or competing ligand from its target. “H-ARTMK^5TARKS^10TGGKAPRKQLA-OH [Compound 8]”: the IC50 in the experiment with recombinant LSD1 (read-out: IC50 (LSD1)) was 0.051 µM. The Ki was 0.04 µM on recombinant LSD1 (read-out: Ki (LSD1)) and 0.05 µM on LSD1 bound to CoREST.

Turning to `CCCCCCCCCCCCCCCCCC(=O)NCCCC[C@H](NC(=O)[C@H](C)NC(=O)[C@H](CC(C)C)NC(=O)[C@H](CCC(N)=O)NC(=O)[C@H](CCCCN)NC(=O)[C@H](CCCNC(=N)N)NC(=O)[C@@H]1CCCN1C(=O)[C@H](C)NC(=O)[C@H](CCCCN)NC(=O)CNC(=O)CNC(=O)[C@@H](NC(=O)[C@@H]1CCC(=O)NCCCC[C@H](NC(=O)[C@H](CCSC)NC(=O)[C@H](C)NC(=O)[C@H](CCCNC(=N)N)NC(=O)[C@H](C)N)C(=O)N[C@@H]([C@@H](C)O)C(=O)N[C@@H](C)C(=O)N[C@@H](CCCNC(=N)N)C(=O)N[C@@H](CCCCN)C(=O)N1)[C@@H](C)O)C(N)=O` [Compound 26] (H-ARAMKTARKETGGKAPRKQLAK(Stearoyl)-NH2; lactam 5-10), the IC50 in the experiment on MCF-7 breast cancer line [3] was under 5 µM; in experiment [4] it was under 11 µM.

Regarding “H-ARAM c[K^5TARK^9E^10] -NH2 [Compound 24]”, the “% cell death Calu 6” value in experiment [4] was “inactive”. The “% inhibition of LSD1 at 500 nM” value on recombinant LSD1/CoREST was 59.8% and 59.78 ± 5.71%.

As for “H-ARAM c[K^5TARK^9E^10]TGG-K^14A-NH2 [Compound 22]”, the “% cell death Calu 6” value in experiment [4] was “inactive”. Also, the “% inhibition of LSD1 at 500 nM” value at recombinant LSD1/CoREST was 73.4% and 73.43 ± 3.75%. For the same compound, the “% cell death K562” value came out at 53 ± 11.3% in [5] (1.0 µM) and 11 ± 3.2% in [5] (100 µM).

With `N=C(NCCCNCCCCCCCNCCCNC(=N)NC(=N)NCCC(c1ccccc1)c1ccccc1)NC(=N)NCCC(c1ccccc1)c1ccccc1` [Compound 3, verlindamycin], the IC50 in [6] (read-out: IC50 (Calu-6), Table 2) came to 6.3 µM; in [6] (read-out: IC50 (Calu-6), Table 6), 1.6 µM; in the experiment with MCF-7 breast cancer line [7] (read-out: IC50 (MCF7), Table 2) it was 5.1 µM; with MCF-7 breast cancer line [7] (read-out: IC50 (MCF7), Table 6), 2.5 µM.

Consider `CCCCCCCC(=O)NCCCC[C@H](NC(=O)[C@H](C)NC(=O)[C@H](CC(C)C)NC(=O)[C@H](CCC(N)=O)NC(=O)[C@H](CCCCN)NC(=O)[C@H](CCCNC(=N)N)NC(=O)[C@@H]1CCCN1C(=O)[C@H](C)NC(=O)[C@H](CCCCN)NC(=O)CNC(=O)CNC(=O)[C@@H](NC(=O)[C@@H]1CCC(=O)NCCCC[C@H](NC(=O)[C@H](CCSC)NC(=O)[C@@H](NC(=O)[C@H](CCCNC(=N)N)NC(=O)[C@H](C)N)[C@@H](C)O)C(=O)N[C@@H]([C@@H](C)O)C(=O)N[C@@H](C)C(=O)N[C@@H](CCCNC(=N)N)C(=O)N[C@@H](CCCCN)C(=O)N1)[C@@H](C)O)C(N)=O` [Compound 27], for which the IC50 in the experiment with MCF-7 breast cancer line [3] turned out to be 36.1 µM; in [4], 92.4 µM. Also, the “H3K4me2 levels at the FEZ1 promoter” value in [1] is given as “increases H3K4me2 marks”. In addition, in [8] (10 µM, 48-hour exposure, normalized to GAPDH), the “increase in global H3K4me2 compared to control” value is 17.6 fold. Moreover, in experiment [2], the “H3K4me2 levels at the IGFBP2 promoter” value is “increases H3K4me2 marks”. The “change in global H3K4 methylation compared to control” value in experiment [9] was “did not induce any changes”.

For `CCCCCCCCCCCCCCCCCC(=O)NCCCC[C@H](NC(=O)[C@H](C)NC(=O)[C@H](CC(C)C)NC(=O)[C@H](CCC(N)=O)NC(=O)[C@H](CCCCN)NC(=O)[C@H](CCCNC(=N)N)NC(=O)[C@@H]1CCCN1C(=O)[C@H](C)NC(=O)[C@H](CCCCN)NC(=O)CNC(=O)CNC(=O)[C@@H](NC(=O)[C@@H]1CCC(=O)NCCCC[C@H](NC(=O)[C@H](CCSC)NC(=O)[C@@H](NC(=O)[C@H](CCCNC(=N)N)NC(=O)[C@H](C)N)[C@@H](C)O)C(=O)N[C@@H]([C@@H](C)O)C(=O)N[C@@H](C)C(=O)N[C@@H](CCCNC(=N)N)C(=O)N[C@@H](CCCCN)C(=O)N1)[C@@H](C)O)C(N)=O` [Compound 25], the IC50 was under 5 µM in the experiment on MCF-7 breast cancer line [3] and under 11 µM in [4].

With “H-ARTM-c[K^5TARK^9E^10]TGGK^14APRKQLA-NH2 [Compound 9]”, the IC50 in experiment [10] was 158 µM; with MCF-7 breast cancer line [11], 153 µM.

For “H-ARAM c[K^5TARK^9E^10]TGG-K^14APRK-NH2 [Compound 21]”, the “% cell death K562” value in [5] (1.0 µM) was 59 ± 8.1%; in experiment [5] (100 µM), 9.5 ± 6.7%.

Turning to `CCCCCCCC(=O)NCCCC[C@H](NC(=O)[C@H](C)NC(=O)[C@H](CC(C)C)NC(=O)[C@H](CCC(N)=O)NC(=O)[C@H](CCCCN)NC(=O)[C@H](CCCNC(=N)N)NC(=O)[C@@H]1CCCN1C(=O)[C@H](C)NC(=O)[C@H](CCCCN)NC(=O)CNC(=O)CNC(=O)[C@@H](NC(=O)[C@@H]1CCC(=O)NCCCC[C@H](NC(=O)[C@H](CCSC)NC(=O)[C@H](C)NC(=O)[C@H](CCCNC(=N)N)NC(=O)[C@H](C)N)C(=O)N[C@@H]([C@@H](C)O)C(=O)N[C@@H](C)C(=O)N[C@@H](CCCNC(=N)N)C(=O)N[C@@H](CCCCN)C(=O)N1)[C@@H](C)O)C(N)=O` [Compound 28] (H-ARAMKTARKETGGKAPRKQLAK(Octanoyl)-NH2; lactam 5-10), the IC50 with MCF-7 breast cancer line [3] turned out to be 28.1 µM; in [4] it was 40.2 µM; in experiment [5] (2 h) it was 95.1 µM. The “H3K4me2 levels at the FEZ1 promoter” value in [1] is listed as “greatest increase; also recorded: increases H3K4me2 marks”. Besides, in [8] (0.1 µM and 1.0 µM, 48 h, preliminary study), the “dose dependence of H3K4 methylation” value is given as “modest dose dependent increase”. Further, the “H3K4me2 levels at the IGFBP2 promoter” value in experiment [2] is “greatest increase; also recorded: increases H3K4me2 marks”. In addition, the “change in global H3K4 methylation compared to control” value in experiment [9] is given as “did not induce any changes”.

On to “H-ARAM c[K^5TARK^9E^10]TG-NH2 [Compound 23]”, for which the “% cell death Calu 6” value in experiment [4] was “inactive”. Also, the “% inhibition of LSD1 at 500 nM” value on recombinant LSD1/CoREST is 67.3% and 67.31 ± 5.81%. Moreover, the results for the “% cell death K562” value in experiment [5] (1.0 µM) and in experiment [5] (100 µM) were 90 ± 9.4% and 18 ± 3.7%, respectively.
